SMILES strings stand for the structures.

The assay deals with T1, c-Met kinase (recombinant c-Met) (Homo sapiens, UniProt P08581).
T1 construct: 0.27 nM recombinant c-Met
T1 sequence (P08581 25-1390): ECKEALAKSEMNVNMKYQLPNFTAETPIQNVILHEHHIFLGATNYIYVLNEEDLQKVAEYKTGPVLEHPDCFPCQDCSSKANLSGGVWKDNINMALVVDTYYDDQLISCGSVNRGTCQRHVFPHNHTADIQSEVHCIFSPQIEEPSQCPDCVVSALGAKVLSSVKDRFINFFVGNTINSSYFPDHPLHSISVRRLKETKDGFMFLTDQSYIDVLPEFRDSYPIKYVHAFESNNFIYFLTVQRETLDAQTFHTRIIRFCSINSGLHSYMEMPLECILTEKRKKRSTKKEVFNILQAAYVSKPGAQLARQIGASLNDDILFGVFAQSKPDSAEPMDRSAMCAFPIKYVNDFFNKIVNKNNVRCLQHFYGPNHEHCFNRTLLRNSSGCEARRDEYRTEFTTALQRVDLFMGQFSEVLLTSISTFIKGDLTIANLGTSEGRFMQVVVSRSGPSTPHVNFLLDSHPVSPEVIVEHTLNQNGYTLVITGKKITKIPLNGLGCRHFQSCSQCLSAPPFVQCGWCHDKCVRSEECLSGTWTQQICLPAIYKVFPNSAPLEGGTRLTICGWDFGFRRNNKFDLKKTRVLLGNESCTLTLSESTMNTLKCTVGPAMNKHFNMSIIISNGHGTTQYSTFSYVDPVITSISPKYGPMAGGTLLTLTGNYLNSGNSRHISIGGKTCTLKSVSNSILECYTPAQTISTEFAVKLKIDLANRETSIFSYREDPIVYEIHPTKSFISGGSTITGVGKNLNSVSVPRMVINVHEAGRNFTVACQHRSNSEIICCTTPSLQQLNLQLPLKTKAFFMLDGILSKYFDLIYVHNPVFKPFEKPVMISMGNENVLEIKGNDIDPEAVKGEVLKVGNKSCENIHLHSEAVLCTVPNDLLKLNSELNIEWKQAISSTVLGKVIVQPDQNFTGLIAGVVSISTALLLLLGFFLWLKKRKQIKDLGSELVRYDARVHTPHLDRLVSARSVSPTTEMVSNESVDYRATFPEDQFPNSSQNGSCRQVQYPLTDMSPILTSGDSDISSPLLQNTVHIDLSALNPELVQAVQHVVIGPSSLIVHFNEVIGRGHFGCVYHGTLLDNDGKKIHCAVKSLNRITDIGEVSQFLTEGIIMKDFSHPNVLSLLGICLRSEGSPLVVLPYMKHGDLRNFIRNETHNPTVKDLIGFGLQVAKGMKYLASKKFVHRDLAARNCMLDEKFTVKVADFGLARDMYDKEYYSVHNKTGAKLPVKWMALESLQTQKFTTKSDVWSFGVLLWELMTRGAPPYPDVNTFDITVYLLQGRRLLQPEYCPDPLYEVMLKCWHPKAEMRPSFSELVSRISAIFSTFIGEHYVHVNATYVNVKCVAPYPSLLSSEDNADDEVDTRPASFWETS
Kind of assay: In vitro kinase assay I (homogeneous time-resolved fluorescence tyrosine kinase assay). The format is biochemical. In short, it runs like this:
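Biotinylated peptide (0.5 μM) phosphorylated by 0.2 nM recombinant c-Met with 50 μM MgATP, 60 min at room temperature, pH 7.4, 5% DMSO. EDTA stop; HTRF read with Eu-anti-phosphotyrosine antibody and streptavidin-APC. IC50 from 4-parameter logistic fit.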
On to `CCn1cc(-n2ccc(=O)c(Cc3cccc(NC(=O)OCCOC)c3)n2)cn1` [Example 70, 2-methoxyethyl (3-{[1-(1-ethyl-1H-pyrazol-4-yl)-4-oxo-1,4-dihydropyridazin-3-yl]methyl}phenyl)carbamate], for which the IC50 was less than 100 nM.
Regarding `CCn1cc(-n2ccc(=O)c(Cc3cccc(-c4ncc(OCc5ccccc5)cn4)c3)n2)cn1` [Example 71, 3-{3-[5-(benzyloxy)pyrimidin-2-yl]benzyl}-1-(1-ethyl-1H-pyrazol-4-yl)pyridazin-4(1H)-one], the IC50 was less than 100 nM.
In the case of `CCOc1cnc(-c2cccc(Cc3nn(-c4cccc(C#N)c4)ccc3=O)c2)nc1` [Example 72, 3-[3-[3-(5-ethoxypyrimidin-2-yl)benzyl]-4-oxopyridazin-1(4H)-yl]benzonitrile], the IC50 is less than 100 nM.
Consider `COCCOC(=O)Nc1cccc(Cc2nn(-c3cc(F)cc(C#N)c3)ccc2=O)c1` [Example 73, 2-methoxyethyl (3-{[1-(3-cyano-5-fluorophenyl)-4-oxo-1,4-dihydropyridazin-3-yl]methyl}phenyl)carbamate], for which the IC50 was less than 100 nM.
Next, `Cn1cc(-n2ccc(=O)c(Cc3ccc4cnccc4c3)n2)cn1` [Example 74, 3-(isoquinolin-6-ylmethyl)-1-(1-methyl-1H-pyrazol-4-yl)pyridazin-4(1H)-one]: 100 to 1000 nM; `Cc1nnc(-c2cccc(Cc3nn(-c4cnn(C)c4)ccc3=O)c2)s1` [Example 75, 1-(1-methyl-1H-pyrazol-4-yl)-3-[3-(5-methyl-1,3,4-thiadiazol-2-yl)benzyl]pyridazin-4(1H)-one]: 1000 to 3000 nM; `CCCCn1cnc(-c2cccc(Cc3nn(-c4cnn(C)c4)ccc3=O)c2)n1` [Example 76, 3-[3-(1-butyl-1H-1,2,4-triazol-3-yl)benzyl]-1-(1-methyl-1H-pyrazol-4-yl)pyridazin-4(1H)-one]: less than 100 nM.
Take `COCCCn1cnc(-c2cccc(Cc3nn(-c4cnn(C)c4)ccc3=O)c2)n1` [Example 77, 3-{3-[1-(3-methoxypropyl)-1H-1,2,4-triazol-3-yl]benzyl}-1-(1-methyl-1H-pyrazol-4-yl)pyridazin-4(1H)-one]: the IC50 was less than 100 nM.
Regarding `CC(C)CCn1cnc(-c2cccc(Cc3nn(-c4cnn(C)c4)ccc3=O)c2)n1` [Example 78, 3-{3-[1-(3-methylbutyl)-1H-1,2,4-triazol-3-yl]benzyl}-1-(1-methyl-1H-pyrazol-4-yl)pyridazin-4(1H)-one], the IC50 is less than 100 nM.
Consider `CCCn1cnc(-c2cccc(Cc3nn(-c4ccc(F)c(F)c4)ccc3=O)c2)n1` [Example 80, 1-(3,4-difluorophenyl)-3-[3-(1-propyl-1H-1,2,4-triazol-3-yl)benzyl]pyridazin-4(1H)-one], for which the IC50 was less than 100 nM.
Take `CCCn1cnc(-c2cccc(Cc3nn(-c4cc(F)cc(C#N)c4)ccc3=O)c2)n1` [Example 81, 3-fluoro-5-{4-oxo-3-[3-(1-propyl-1H-1,2,4-triazol-3-yl)benzyl]pyridazin-1(4H)-yl}benzonitrile]: the concentration for half-maximal inhibition (IC50) is less than 100 nM.
`CCn1cnc(-c2cccc(Cc3nn(-c4ccc(F)c(F)c4)ccc3=O)c2)n1` [Example 82, 1-(3,4-difluorophenyl)-3-[3-(1-ethyl-1H-1,2,4-triazol-3-yl)benzyl]pyridazin-4(1H)-one]: the IC50 is less than 100 nM.
Turning to `CCn1cnc(-c2cccc(Cc3nn(-c4cc(F)cc(C#N)c4)ccc3=O)c2)n1` [Example 83, 3-{3-[3-(1-ethyl-1H-1,2,4-triazol-3-yl)benzyl]-4-oxopyridazin-1(4H)-yl}-5-fluorobenzonitrile], the IC50 was less than 100 nM.
With `CCn1cnc(-c2cccc(Cc3nn(-c4cccc(C#N)c4)ccc3=O)c2)n1` [Example 84, 3-{3-[3-(1-Ethyl-1H-1,2,4-triazol-3-yl)benzyl]-4-oxopyridazin-1(4H)-yl}benzonitrile], the IC50 was less than 100 nM.
For `CCCn1cnc(-c2cccc(Cc3nn(-c4cccc(C#N)c4)ccc3=O)c2)n1` [Example 85, 3-{4-oxo-3-[3-(1-propyl-1H-1,2,4-triazol-3-yl)benzyl]pyridazin-1(4H)-yl}benzonitrile], the IC50 is less than 100 nM.
For the compound `CCn1cc(-n2ccc(=O)c(Cc3cccc(-c4ncn(CC)n4)c3)n2)cn1` [Example 86, 1-(1-ethyl-1H-pyrazol-4-yl)-3-[3-(1-ethyl-1H-1,2,4-triazol-3-yl)benzyl]pyridazin-4(1H)-one], the IC50 is less than 100 nM.
Turning to `CCCn1cnc(-c2cccc(Cc3nn(-c4cnn(CC)c4)ccc3=O)c2)n1` [Example 87, 1-(1-ethyl-1H-pyrazol-4-yl)-3-[3-(1-propyl-1H-1,2,4-triazol-3-yl)benzyl]pyridazin-4(1H)-one], the IC50 was less than 100 nM.
With `CCn1cnc(-c2cccc(Cc3nn(-c4cnn(CCOCc5ccccc5)c4)ccc3=O)c2)n1` [Example 88, 1-{1-[2-(benzyloxy)ethyl]-1H-pyrazol-4-yl}-3-[3-(1-ethyl-1H-1,2,4-triazol-3-yl)benzyl]pyridazin-4(1H)-one], the IC50 fell in the range of 100 to 1000 nM.
`CCCn1cnc(-c2cccc(Cc3nn(-c4cnn(CCOCc5ccccc5)c4)ccc3=O)c2)n1` [Example 89, 1-{1-[2-(benzyloxy)ethyl]-1H-pyrazol-4-yl}-3-[3-(1-propyl-1H-1,2,4-triazol-3-yl)benzyl]pyridazin-4(1H)-one]: the IC50 fell in the range of 100 to 1000 nM.
Regarding `CC(C)COC(=O)Nc1cccc(Cc2nn(-c3cnn(C4CCOCC4)c3)ccc2=O)c1` [Example 90, 2-methylpropyl [3-({4-oxo-1-[1-(tetrahydro-2H-pyran-4-yl)-1H-pyrazol-4-yl]-1,4-dihydropyridazin-3-yl}methyl)phenyl]carbamate], the IC50 fell in the range of 100 to 1000 nM.
In the case of `CCOC(=O)Nc1cccc(Cc2nn(-c3cnn(C4CCOCC4)c3)ccc2=O)c1` [Example 91, ethyl [3-({4-oxo-1-[1-(tetrahydro-2H-pyran-4-yl)-1H-pyrazol-4-yl]-1,4-dihydropyridazin-3-yl}methyl)phenyl]carbamate], the IC50 fell in the range of 100 to 1000 nM.
`CCOC(=O)Nc1cccc(Cc2nn(-c3cnn(CC(C)C)c3)ccc2=O)c1` [Example 92, ethyl [3-({1-[1-(2-methylpropyl)-1H-pyrazol-4-yl]-4-oxo-1,4-dihydropyridazin-3-yl}methyl)phenyl]carbamate]: the IC50 lay within 100 to 1000 nM.
For `CC(C)COC(=O)Nc1cccc(Cc2nn(-c3cnn(CC(F)(F)F)c3)ccc2=O)c1` [Example 93, 2-methylpropyl [3-({4-oxo-1-[1-(2,2,2-trifluoroethyl)-1H-pyrazol-4-yl]-1,4-dihydropyridazin-3-yl}methyl)phenyl]carbamate], the IC50 is less than 100 nM.
In the case of `CC(C)COC(=O)Nc1cccc(Cc2nn(-c3cnn(CC(C)C)c3)ccc2=O)c1` [Example 94, 2-methylpropyl [3-({1-[1-(2-methylpropyl)-1H-pyrazol-4-yl]-4-oxo-1,4-dihydropyridazin-3-yl}methyl)phenyl]carbamate], the IC50 lay in the range of 100 to 1000 nM.
For `COc1cnc(-c2cccc(Cc3nn(-c4cnn(CC(C)C)c4)ccc3=O)c2)nc1` [Example 95, 3-[3-(5-methoxypyrimidin-2-yl)benzyl]-1-[1-(2-methylpropyl)-1H-pyrazol-4-yl]pyridazin-4(1H)-one], the IC50 is less than 100 nM.
Next, `CC(C)Cn1cc(-n2ccc(=O)c(Cc3cccc(NC(=O)OCCN4CCOCC4)c3)n2)cn1` [Example 96, 2-morpholin-4-ylethyl [3-({1-[1-(2-methylpropyl)-1H-pyrazol-4-yl]-4-oxo-1,4-dihydropyridazin-3-yl}methyl)phenyl]carbamate]: 100 to 1000 nM; `CCOC(=O)Nc1cccc(Cc2nn(-c3cnn(CC4CCOCC4)c3)ccc2=O)c1` [Example 100, ethyl [3-({4-oxo-1-[1-(tetrahydro-2H-pyran-4-ylmethyl)-1H-pyrazol-4-yl]-1,4-dihydropyridazin-3-yl}methyl)phenyl]carbamate]: 100 to 1000 nM; `CCCOC(=O)Nc1cccc(Cc2nn(-c3cnn(CC4CCOCC4)c3)ccc2=O)c1` [Example 101, propyl [3-({4-oxo-1-[1-(tetrahydro-2H-pyran-4-ylmethyl)-1H-pyrazol-4-yl]-1,4-dihydropyridazin-3-yl}methyl)phenyl]carbamate]: 100 to 1000 nM.
For `CC(C)COC(=O)Nc1cccc(Cc2nn(-c3cnn(CC4CCOCC4)c3)ccc2=O)c1` [Example 102, 2-methylpropyl [3-({4-oxo-1-[1-(tetrahydro-2H-pyran-4-ylmethyl)-1H-pyrazol-4-yl]-1,4-dihydropyridazin-3-yl}methyl)phenyl]carbamate] the value was 100 to 1000 nM; for `CCOC(=O)Nc1cccc(Cc2nn(-c3cnn(C(C)C)c3)ccc2=O)c1` [Example 103, ethyl [3-({1-[1-(1-methylethyl)-1H-pyrazol-4-yl]-4-oxo-1,4-dihydropyridazin-3-yl}methyl)phenyl]carbamate], less than 100 nM; for `CCCOC(=O)Nc1cccc(Cc2nn(-c3cnn(C(C)C)c3)ccc2=O)c1` [Example 104, propyl [3-({1-[1-(1-methylethyl)-1H-pyrazol-4-yl]-4-oxo-1,4-dihydropyridazin-3-yl}methyl)phenyl]carbamate], less than 100 nM.
Next, `CC(C)COC(=O)Nc1cccc(Cc2nn(-c3cnn(C(C)C)c3)ccc2=O)c1` [Example 105, 2-methylpropyl [3-({1-[1-(1-methylethyl)-1H-pyrazol-4-yl]-4-oxo-1,4-dihydropyridazin-3-yl}methyl)phenyl]carbamate]: less than 100 nM; `CCOC(=O)Nc1cccc(Cc2nn(-c3cnn(CCOC)c3)ccc2=O)c1` [Example 106, ethyl [3-({1-[1-(2-methoxyethyl)-1H-pyrazol-4-yl]-4-oxo-1,4-dihydropyridazin-3-yl}methyl)phenyl]carbamate]: 100 to 1000 nM.
Take `CCCOC(=O)Nc1cccc(Cc2nn(-c3cnn(CCOC)c3)ccc2=O)c1` [Example 107, propyl [3-({1-[1-(2-methoxyethyl)-1H-pyrazol-4-yl]-4-oxo-1,4-dihydropyridazin-3-yl}methyl)phenyl]carbamate]: the IC50 lay within 100 to 1000 nM.

One may read the IC50 as the concentration that inhibits the measured activity by half.

Values taken from patent publication US20120264735A1 (priority 2009, published 2012).
